Patent US9132131B2, “Use of adenosine A3 receptor agonists for treatment of neuropathic pain” (Saint Louis University, priority 2011, dated 2015)

Key:
[1] = tested on: RPMI 8226 multiple myeloma cells; assay: MTT cell survival assay, RPMI 8226; assay type: cell-based, human; settings: 48 hours
Method: Cells were cultured and assayed in DMEM (SKBR3; human breast cancer cells), L15 (SW480; human colon cancer cells) or RPMI […] (RPMI 8226; human multiple myeloma cells) supplemented with heat-denatured 10% FBS and penicillin/streptomycin at 37° C., 0% (SW480) or 5% CO2 (SKBR3 and RPMI 8226), 95% humidity. The antitumor activities of these agents were measured in cells (6.25×10^4 cells/well) cultured overnight in 24-well plates (SKBR3 and SW480; BD Biosciences) or 12 mm×7.5 mm culture tubes (RPMI 8226; BD Biosciences) in complete media. […] Two naïve control wells were included as a control for 100% survival. Cell survival was determined using a MTT (3-(4,5-dimethylthiazol-2-yl)-2,5-diphenyltetrazolium bromide) assay adapted from a previously described assay. Cells were incubated with MTT (500 μg/ml) for 75 minutes at 37° C., 0% or 5% CO2, 95% humidity, removing the media and dissolving the tetrazolium crystals in isopropanol. […] The antitumor effects of IB-MECA alone were determined as % Survivability=(A560-570 nm of chemotherapeutic vehicle+IB-MECA)/(mean A560-570 nm of the naïve control wells)×100. The LD50 of each chemotherapeutic agent+IB-MECA or its vehicle was calculated using three-parameter non-linear analysis using % Survivability=(A560-570 nm of chemotherapeutic+IB-MECA or its vehicle)/(mean A560-570 nm chemotherapeutic vehicle+vehicle of IB-MECA)×100. […]

[2] = subjects receiving the drug; cited from earlier work
[3] = tested on: CCI of the sciatic nerve (mechano-allodynia); assay: CCI model of neuropathic pain, mechano-allodynia (von Frey PWT); assay type: in vivo, mice
Method: CCI model of neuropathic pain. CCI to the sciatic nerve of the left hind leg in mice was performed under general anaesthesia using the well-characterized Bennett model. Briefly, mice (weighing 25-30 g at the time of surgery) were anesthetized with 3% isoflurane/100% O2 inhalation and maintained on 2% isoflurane/100% O2 for the duration of surgery. The left thigh was shaved, scrubbed with Nolvasan® and a small incision (1-1.5 cm in length) was made in the middle of the lateral aspect of the left thigh to expose the sciatic nerve. The nerve was loosely ligated around the entire diameter of the nerve at three distinct sites (spaced 1 mm apart) using silk sutures (6.0). The surgical site was closed with a single muscle suture and a skin clip. Pilot studies established that under our experimental conditions peak mechano-allodynia develops by day 5-day 7 (D5-D7) following CCI. Test substances or their vehicles were given subcutaneously (s.c.), intraperitoneally (i.p.) or orally by gavage (0.1 ml) at peak mechano-allodynia (D7).
Behavioral testing. […] The plantar aspect of hindpaws were probed three times with calibrated von Frey filaments (Stoelting, mice: 0.07-2.00 grams; rats: 0.407-26 grams) according to the “up-and-down” method. […] Briefly, each rat was placed in a Plexiglas chamber (28×40×35-cm, wire mesh floor) and after its acclimation, a servo-controlled mechanical stimulus was applied to the plantar surface that exerted a progressively increasing punctate pressure up to 50 grams within 10 seconds. Mechanical threshold was assessed three times at each time point to yield a mean value, reported as PWT (grams). […] Mechano-hyperalgesia was assessed in rats by the Randall and Sellitto paw pressure test using an analgesiometer (Ugo Basile). The nociceptive threshold was defined as the force (grams) at which the rat withdrew its paw (cut off set at 250 grams).
Determining ED50 values. Dose response data were curve-fitted using the least sum of square method by a normalized 4-parameter, variable slope non-linear analysis of the % Reversal of Mechano-allodynia in CCI and % Prevention of Mechano-allodynia or Mechano-hyperalgesia in CIPN using GraphPad Prism (Release 5.03, GraphPad Software, Inc.) from which the ED50 was determined and reported with the 95% confidence interval (95% CI). In the CCI model, the % Reversal of Mechano-allodynia=(PWT1h−PWTD7)/(PWTD0−PWTD7)×100, where PWTD0=Paw Withdrawal Threshold (g) at D0, PWT1h=Paw Withdrawal Threshold (g) at 1 hour after the administration of IB-MECA, gabapentin, amitriptyline, or combinations of IB-MECA with gabapentin or amitriptyline, and PWTD7=Paw Withdrawal Threshold (grams) at D7 prior to drug administration.
Statistical Analysis. Data are expressed as mean±SD for n animals. Behavioral data were analyzed by two-way repeated measures ANOVA with Bonferroni comparisons (full time course studies) or one-way ANOVA Dunnett's comparisons (1 hour behavioral data). The dose response curves were compared to a globally fitted curve using the extra sum-of-squares F-test comparisons to determine whether the data represented distinct curves between treatments. Significant differences were defined at a P<0.05. All statistical analysis was performed using GraphPad Prism (v5.03, GraphPad Software, Inc.).

[4] = tested on: paclitaxel-induced neuropathic pain; assay: Paclitaxel-induced neuropathic pain (mechano-allodynia, mechano-hyperalgesia); assay type: in vivo, rats; settings: 0.2 μmol/kg/d (not shown)
[5] = tested on: acute nociception (tail flick latency); assay: Tail flick assay for acute nociception; assay type: in vivo, mice; settings: IB-MECA, MRS1898 0.5 μmol/kg i.p. at 30, 60, 120 minutes; morphine 35 μmol/kg s.c. positive control
Method: (§1) Tail flick and hot plate assay in mice for acute nociception. The tail flick test, which measures latency(s) of tail withdrawal from a noxious radiant heat source (Ugo Basile; model number 37360) was used to measure thermal nociceptive sensitivity in mice with baseline latencies of 3-5 seconds and a cut-off time of 15 seconds to prevent tissue injury. Tail flick latencies were taken before and at 30, 60 and 120 minutes after i.p. injection of IB-MECA, MRS1898 (0.5 μmol/kg) or its vehicle (0.1% DMSO in saline). For the hot plate test, nociceptive thresholds were determined as previously reported by our group by measuring latencies (in seconds) of mice placed in a transparent glass cylinder on a hot plate maintained at 52° C.. Responses indicative of nociception included intermittent lifting and/or licking of the hindpaws or escape behavior. Hot plate latencies were taken in mice from all groups before and after drug administration. A cut-off latency of 15 seconds was employed to prevent tissue damage.

[6] = tested on: acute nociception (hot plate latency); assay: Hot plate assay for acute nociception; assay type: in vivo, mice; settings: 0.5 μmol/kg
Method: as §1

| SMILES | LD50 [1] | incidence of CIPN [2] | effect on PWT in contralateral paws ([3]; D7 after CCI, drug alone) | reversal of mechano-allodynia in ipsilateral paws ([3]; single dose D7, IB-MECA 0.2-2, CI-IB-MECA 0.6, MRS1898 0.5 μmol/kg i.p., morphine 0.11-35 s.c., gabapentin 18-584 i.p., amitriptyline 3-191 μmol/kg oral) | effect on paclitaxel-induced neuropathic pain [4] | effect on tail flick latency [5] | effect on the hot plate [6] |
| --- | --- | --- | --- | --- | --- | --- | --- |
| CC(C)C[C@H](NC(=O)[C@H](Cc1ccccc1)NC(=O)c1cnccn1)B(O)O [Bortezomib] | 27 nM | 36-55% | – | – | – | – | – |
| CNC(=O)[C@]12C[C@@H]1[C@@H](n1cnc3c(NCc4cccc(I)c4)nc(Cl)nc31)[C@H](O)[C@@H]2O [MRS1898, (1′R,2′R,3′S,4′R,5′S)-4-{2-chloro-6-[(3-iodophenylmethyl)amino]purin-9-yl}-1-(methylaminocarbonyl)-bicyclo[3.1.0]hexane-2,3-diol] | – | – | had no effect | reversed mechano-allodynia | completely blocked | lacked effect | had no effect |
